Data reported in patent US9834514B2, “Antibiotic sensitivity-restoring and photosensitive agents” (New Mexico Tech Research Foundation, priority 2015, dated 2017).
Converted amounts (≈) assume the structure as drawn. Read-outs that look alike come from different tables or passages of the source.

What was measured:
VRE = assay: MIC against VRE; assay type: cell-based, Enterococcus faecalis
Description: In a 12×75 mm borosilicate glass culture tube, 1 mL of cell suspension was added. Then, compound 7 was added to the cells, and the samples were mixed using a vortex mixer. […] The samples were incubated overnight at 37° C. on a rotary shaking incubator at 100 rpm.

MRSA [1] = assay: MIC of a compound of the invention and ampicillin, alone and in combination; assay type: cell-based
Excerpt: Compounds of the invention can increase the potency of antibiotics. […] The ability of compounds of the invention to synergize with structurally and mechanistically unrelated antibiotics can be a result of the inhibition of bacterial efflux.

MRSA [2] = assay: Minimum bactericidal concentration (MBC) with and without white light; assay type: cell-based, S. aureus; details: Staphylococcus aureus, light or radiation study
Description: The bacterial media was inoculated with bacteria and incubated overnight. The bacterial cultures were diluted to 5×10^8 CFU/mL using a McFarland latex turbidity standard (0.5). Compound 1 was diluted with sterile DMSO, which was added to the cell suspension in glass culture tubes. The cells were then incubated for 30 minutes at 37° C. on a rotary shaking incubator at 150 rpm. 500 μL of the treated cell suspension was added to a well on a sterile ceramic drop plate. Non-coherent white light from a Lumacare™ LC-122 unit was used to irradiate the samples. The end of the light probe was placed 3 cm above the sample well, perpendicular to the surface of the sample, and light was applied for 2 minutes (15 seconds light, 15 seconds dark). 200 μL of the irradiated sample was transferred to a 96-well plastic microtiter plate and five ten-fold dilutions were made in the media. 10 μL of each dilution was dripped onto an agar media plate and was allowed to streak down the plate by tilting the plate down. The agar plates were incubated at 37° C. overnight and colony counts were performed to calculate the CFU/mL.
TABLE 14 details the MBC values of compounds 1-6 against MRSA with and without irradiation with white light. Irradiation involved treatment with a LumaCare™ light source at 3 cm from media for 1 min.

[3] = tested on: MES-SA/Dx5 (human uterine sarcoma grown in presence of doxorubicin); assay: Light-activated killing of cell lines (IC50 with/without light); assay type: cell-based; details: Homo sapiens
Description: (§1) TABLE 15 depicts the IC50 of compounds in the presence or absence of light for human cell lines. The cell lines used were HeLa (human cervical adenocarcinoma), U-87 MG (human brain gliobastoma), MES-SA (human uterine sarcoma), MES-SA/D×5 (human uterine sarcoma grown in presence of doxorubicin), NCI-H441 (human lung papillary adenocarcinoma), A549 (human lung carcinoma), WI-38 (human embryonic lung normal), MCF7 (human breast adenocarcinoma), SW1088 (human brain astrocytoma), B16F10 (mouse skin melanoma), NIH-3T3 (mouse fibroblast), and Jurkat (human lymphoblastoma). “1-Sol” in TABLE 15 was generated by dissolving compound 1 and potassium hydroxide at a 1:1 ratio in a DMSO/water solution. The cells were irradiated with continuous white light using a LumaCare™ light source for 2 minutes at a distance of 6.5 cm from the cells.

[4] = tested on: U-87 MG (human brain gliobastoma); assay: as above; assay type: cell-based
Description: as §1

[5] = MIC against MRSA isolates; assay type: cell-based, S. aureus; details: Staphylococcus aureus
Description: The MICs of S. aureus ATCC 33591, BAA-44, BAA-1707, BAA-1717, BAA-1720, BAA-1747, BAA-1754, BAA-1761, BAA-1763, BAA-1764, and BAA-1766 were measured using a cell concentration of about 5×10^5 colony forming units (CFU)/mL. In a 96-well microtiter plate, two-fold dilutions were made of each drug (starting with 100 μM) in 100 μL of a cell suspension in trypticase soy broth (TSB). The samples were incubated overnight at 37° C. on a rotary shaking incubator set at 100 revolutions per minute (rpm) and were visually inspected for turbidity. A 20% well-volume of 3-(4,5-dimethylthiazol-2-yl)-2,5-diphenyltetrazolium bromide (MTT reagent, 5 mg/mL) was added, and the samples were incubated for about 20 minutes. The MICs were determined as the lowest concentration at which full visual inhibition was observed by the unaided eye.

S. aureus (ATCC 29213) [6] = assay: MIC against drug sensitive S. aureus; assay type: cell-based; details: Staphylococcus aureus, ATCC29213; ATCC 29213; read-out: S. aureus MIC
S. aureus (ATCC 29213) [7] = assay: microbe, parasite or virus in culture; assay type: cell-based; details: for MIC: Staphylococcus aureus
Description: Each mixture was incubated at 37° C. on a rotary shaking incubator for about 16 hours. MTT was then added to assess the viability of the cells (at 10% well volume). […] The cells were then streaked onto a TSA plate and incubated overnight at 37° C. These steps were repeated to reach a total of 30 exposures.

With CC1(C)S[C@@H]2[C@H](NC(=O)[C@H](N)c3ccccc3)C(=O)N2[C@H]1C(=O)O [Ampicilin, ampicillin] the S/R (VRE; TABLE 24) was “S”, the MIC (VRE; common antibiotics, TABLE 24) was 2 to 4 µg/mL and the “fold decrease in concentration in combination” value (MRSA [1]; combination versus alone) was 8 fold. The “concentration needed for full killing in combination” value (MRSA [1]; compound used in combination with ampicillin) was “about 572 μM” and the “mean inhibitory concentration (MIC), alone” value (MRSA [1]; single agent) was “about 4579 μM”.
With Fc1ccc(/C=C/c2[nH]c3ccccc3c2/C=C/c2ccc(F)cc2)cc1 [Compound 4] the MBC (MRSA [2]; 1 min, LumaCare light source at 3 cm from media for 1 min, read-out: MBC with irradiation) was 0.5 µM (≈ 0.179 µg/mL), the MBC (MRSA [2]; no irradiation, read-out: MBC in the dark) was 100 µM (≈ 35.7 µg/mL) and the IC50 ([3]; MES-SA/Dx5, 2 min, MES-SA/Dx5 (no doxorubicin), white light 2 minutes, read-out: Compound + light IC50) was 1.31 ± 0.51 µM. The IC50 ([3]; MES-SA/Dx5, 2 min, MES-SA/Dx5 + doxorubicin, white light 2 minutes, read-out: Compound + light IC50) was 0.67 ± 0.01 µM, the IC50 ([3]; MES-SA/Dx5, MES-SA/Dx5 (no doxorubicin), no light, read-out: Compound IC50) was 57.2 ± 10.3 µM and the IC50 ([3]; MES-SA/Dx5, MES-SA/Dx5 + doxorubicin, no light, read-out: Compound IC50) was 40.9 ± 1.36 µM. It also gave an IC50 ([4]; 2 min, white light 2 minutes, read-out: Compound + light IC50) of 1.01 ± 0.16 µM and an IC50 ([4]; no light, read-out: Compound IC50) of 42.6 ± 5.53 µM.
For CCn1cc(C(=O)O)c(=O)c2cc(F)c(N3CCNCC3)cc21 [Norfloxacin, reference compound], the MIC ([5]; MRSA (ATCC BAA-44), TABLE 21, read-out: MRSA MIC) was 100 µg/mL (≈ 313 µM), the MIC ([5]; antibiotics, MRSA isolate ATCC 33591, read-out: MIC) was 25 µg/mL (≈ 78.3 µM) and the MIC ([5]; antibiotics, MRSA isolate ATCC BAA-44, read-out: MIC) was 100 µg/mL (≈ 313 µM). The MIC ([5]; antibiotics, MRSA isolate ATCC BAA-1707, read-out: MIC) was less than 3.1 µg/mL, the MIC ([5]; antibiotics, MRSA isolate ATCC BAA-1720, read-out: MIC) was greater than 100 µg/mL and the MIC ([5]; antibiotics, MRSA isolate ATCC BAA-1747, read-out: MIC) was 6.3 µg/mL (≈ 19.7 µM). It also gave an MIC ([5]; antibiotics, MRSA isolate ATCC BAA-1754, read-out: MIC) of less than 3.1 µg/mL, an MIC ([5]; antibiotics, MRSA isolate ATCC BAA-1761, read-out: MIC) greater than 100 µg/mL and an MIC ([5]; antibiotics, MRSA isolate ATCC BAA-1763, read-out: MIC) greater than 100 µg/mL. It also gave an MIC ([5]; antibiotics, MRSA isolate ATCC BAA-1764, read-out: MIC) of less than 3.1 µg/mL, an MIC ([5]; antibiotics, MRSA isolate ATCC BAA-1766, read-out: MIC) of less than 3.1 µg/mL and an MIC (VRE; Enterococcus, TABLE 23, read-out: VRE MIC) of 2.5 µg/mL (≈ 7.83 µM). For the same compound, the MIC (VRE; Enterococcus, common antibiotics, TABLE 24, read-out: MIC) was 1 µg/mL (≈ 3.13 µM), the S/R (VRE; TABLE 24) was “S” and the MIC (S. aureus (ATCC 29213) [6]) was 1.25 to 2.5 µg/mL (≈ 3.91 to 7.83 µM). The “Resistance Evolved” value (S. aureus (ATCC 29213) [7]) was “Yes”, the MIC (S. aureus (ATCC 29213) [7]; ATCC29213, read-out: Final MIC Apr. 16, 2015) was greater than 16 µM and the MIC (S. aureus (ATCC 29213) [7]; ATCC29213, read-out: Initial MIC Mar. 10, 2015) was 2 µM (≈ 0.639 µg/mL).
